Laboratory results from patent US20250163010A1, “PROCESSES FOR THE PREPARATION OF N-(1-METHYLCYCLOPROPYL)-2-(3-PYRIDINYL)-2H-INDAZOLE-4-CARBOXAMIDE AND INTERMEDIATES THEREOF” (FMC CORPORATION, priority 2022, published 2025).

Columns and labels:
[1] = Form A and Form B interconversion (competitive) slurries; assay type: physicochemical
Procedure: Relative thermodynamic stabilities of anhydrous/non-solvated Forms A and B were studied at 2-8° C., room temperature (RT) and at 71-72° C. via interconversion (competitive) slurries. In these slurries, a given solvent system was pre-saturated with compound 092 (Form A+minor Form B) at the stated temperature, and a portion of the liquid phase was filtered into a mixture of solids containing relatively equal amounts of Form A and Form B. Interconversion slurries at 2-8° C. and RT were allowed to stir for 22 days, while slurries at 71-72° C. stirred for shorter duration (2-4 days). […] The results are reported in table 13 below where: liquid phase for each slurry was pre-saturated using as-received Form A+minor Form B; solvent ratios are v/v; water activity values were calculated using UNIFAC calculator at RT; and times and temperatures are approximate.

[2] = Stable polymorph form screen by slurry experiments; assay type: physicochemical; details: between 2° C. and 73° C.; conclusion from slurries
Procedure: Slurry experiments were conducted to identify the stable form at various conditions. In these experiments, saturated solutions in various solvents containing excess undissolved solids (starting with Form A+minor Form B) were stirred for extended durations. Slurries at room temperature (RT) and 2-8° C. were typically conducted for approximately 2 weeks, while slurries at 72-73° C. were stirred for a shorter duration (1 day) to minimize the potential for decomposition. […] The results are shown in the table 12 where the time and temperatures are approximate.

Relative thermodynamic stability of polymorph forms ([1]; between 2° C. and 72° C., conclusion from competitive slurries)	Relative stability of polymorph forms [2]	Final form (XRPD Result) ([1]; competitive slurry in EtOH, 71-72° C., 2 d, relatively equal amounts of Form A and Form B)	Final form (XRPD Result) ([1]; competitive slurry in EtOH, RT, 22 d, relatively equal amounts of Form A and Form B)	Final form (XRPD Result) ([1]; competitive slurry in NMP/water 80:20 (aw 0.39), 2-8° C., 22 d, relatively equal amounts of Form A and Form B)	Final form (XRPD Result) ([1]; competitive slurry in NMP/water 80:20 (aw 0.39), 71-72° C., 2 d, analyzed damp)	Final form (XRPD Result) ([1]; competitive slurry in NMP/water 80:20 (aw 0.39), RT, 22 d, relatively equal amounts of Form A and Form B)	Compound
thermodynamically stable form	more stable than Form B						CC1(NC(=O)c2cccc3nn(-c4cccnc4)cc23)CC1 [Form A, N-(1-methylcyclopropyl)-2-(3-pyridinyl)-2H-indazole 4-carboxamide]
		Form A	Form A	Form A	Form A	Form A	CC1(NC(=O)c2cccc3nn(-c4cccnc4)cc23)CC1 [Form A + Form B, N-(1-methylcyclopropyl)-2-(3-pyridinyl)-2H-indazole 4-carboxamide]
